From patent publication US20220242879A1, “FUSED HETEROCYCLE DERIVATIVES” (Janssen Sciences Ireland Unlimited Company, priority 2019, published 2022)

Columns and labels:
HBV [1] = assay: Anti-HBV activity, HepG2.117 cell line, intracellular HBV DNA by real-time PCR; type: cell-based, Hepatitis B virus; settings: mean value; HepG2.117 cells, 3 days of treatment, intracellular HBV DNA; read-out: HBV-AVE-HepG2.117 EC50
Method: The anti HBV activity was measured using the HepG2.117 cell line, a stable, inducibly HBV producing cell line, which replicates HBV in the absence of doxicycline (Tet-off system). The HepG2 cell line is available from ATCC® under number HB-8065. Transfection of the HepG2 cell line can be as described in Sun and Nassal 2006 Journal of Hepatology 45 (2006) 636-645 “Stable HepG2- and Huh7-based human hepatoma cell lines for efficient regulated expression of infectious hepatitis B virus”.
For the antiviral assay, HBV replication was induced, followed by a treatment with serially diluted compound in 96-well plates. After 3 days of treatment, the antiviral activity was determined by, quantification of intracellular HBV DNA using real-time PCR and an HBV specific primer set and probe.

HepG2.117 cells = assay: Cytotoxicity, ATPlite Luminescence Assay; type: cell-based, human; settings: mean value; cells incubated for 3 days, viability by ATPlite; read-out: TOX-HepC2.117 CC50
Method: Cytotoxicity of the compounds was tested using HepG2 or HepG2.117 cells, incubated for 3 days in the presence of compounds. The viability of the cells was assessed using the PERKIN ELMER ATPlite Luminescence Assay System.”

HBV [2] = assay: HBV replication inhibition assay (BDNA assay), HepG2.2.15 cells; type: cell-based, Hepatitis B virus; settings: 6 days, HBV DNA in supernatant by branched DNA QuantiGene
Method: HBV replication inhibition by the disclosed compounds were determined in cells infected or transfected with HBV or cells with stably integrated HBV, such as HepG2.2.15 cells (Sells et al. 1987). In this example, HepG2.2.15 cells were maintained in cell culture medium containing 10% fetal bovine serum (FBS), Geneticin, L-glutamine, penicillin and streptomycin. HepG2.2.15 cells were seeded in 96-well plates at a density of 40,000 cells/well and were treated with serially diluted compounds at a final DMSO concentration of 0.5% either alone or in combination by adding drugs in a checker box format. […] HBV DNA was denatured by addition of 0.2 M NaOH and detected using a branched DNA (BDNA) QuantiGene assay kit according to manufacturer recommendation (Affymetrix). HBV DNA levels were also quantified using qPCR, based on amplification of encapsidated HBV DNA extraction with QuickExtraction Solution (Epicentre Biotechnologies) and amplification of HBV DNA using HBV specific PCR probes that can hybridize to HBV DNA and a fluorescently labeled probe for quantitation. In addition, cell viability of HepG2.2.15 cells incubated with test compounds alone or in combination was determined by using CellTitre-Glo reagent according to the manufacturer protocol (Promega). […]

| Structure (SMILES) | EC50 (HBV [1]) | CC50 (HepG2.117 cells) | EC50 (HBV [2]) |
| --- | --- | --- | --- |
| CNC(=O)[C@@H]1Cc2conc2-c2c3c(nn2C1)C[C@@H](C)N(C(=O)c1ccc(Cl)c(Cl)c1)C3 (single isomer, unassigned) [Compound 47] | 265 nM | > 50 µM |  |
| N#Cc1cc(NC(=O)N2CCc3nn4c(c3C2)-c2nocc2CC(COCC(F)F)C4)ccc1F (single isomer, unassigned) [Example 7a, (5R*)-N-(3-Cyano-4-fluorophenyl)-5-((2,2-difluoroethoxy)methyl)-5,6,9,10-tetrahydro-4H-isoxazolo[3,4-c]pyrido[4′,3′:3,4]pyrazolo[1,5-a]azepine-11(12H)-carboxamide] |  |  | 21 nM |
